# Assay results as given in PMC9478340, “Inhibitors targeting the autophosphorylation of serine/threonine kinase of Streptococcus suis show potent antimicrobial activity” (Frontiers in Microbiology, 2022).
# Target: T1, serine/threonine kinase (ssSTK) (Streptococcus suis, UniProt A0A0H3MXV7)
# T1 construct: gene SSUBM407_0373; 6 × his-tagged kinase domain of ssSTK (ssSTK^KD, pET28a-stk^KD) is the wild-type expression construct described; the assay text says 'purified ssSTK'
# Experiment: Kinase-Glo ATP consumption assay of autophosphorylation; confirmed by anti-P-Thr western blot
# Assay type: biochemical
# T1 sequence (A0A0H3MXV7 entry or part of it): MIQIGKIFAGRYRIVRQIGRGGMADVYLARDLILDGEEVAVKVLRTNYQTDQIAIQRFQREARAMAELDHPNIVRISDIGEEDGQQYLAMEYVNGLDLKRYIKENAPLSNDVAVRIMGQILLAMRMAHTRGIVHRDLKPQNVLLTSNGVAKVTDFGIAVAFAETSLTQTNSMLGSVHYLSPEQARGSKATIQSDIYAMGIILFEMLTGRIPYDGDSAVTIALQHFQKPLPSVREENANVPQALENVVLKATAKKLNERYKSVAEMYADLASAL
row,Structure (SMILES),IC50 [µM]
1,O=C(Nc1c[nH]nc1-c1nc2cc(CN3CCOCC3)ccc2[nH]1)NC1CC1 [AT9283],10.6
2,COC(=O)[C@@]1(O)C[C@H]2O[C@]1(C)n1c3ccccc3c3c4c(c5c6ccccc6n2c5c31)C(=O)NC4 [K252a],13.8
3,CN[C@@H]1C[C@H]2O[C@@](C)([C@@H]1OC)n1c3ccccc3c3c4c(c5c6ccccc6n2c5c31)C(=O)NC4 [Staurosporine],8.97
4,c1cc(Nc2cc(C3CC3)[nH]n2)nc(Nc2ccc3[nH]cnc3c2)n1 [APY29],10.1
